pIC50: −log10 of the molar value. No end group written: not given here.
What was measured:
Assay in all cases: biochemical
Type in all cases: binding
[1] = molecular target: HLA-A3.2 (A*0301) (Homo sapiens, UniProt P04439); settings: for A*0301 binding: Table 11, binding value, no unit
[2] = molecular target: A*3301 (Homo sapiens, UniProt P04439, A270S/D185E/E176V/E277Q/E87N/F33T/G231S/H175R/I121M/I218V/I322F/K168Q/K210R/L300P/L318F/M331R/P217A/Q86R/Q94H/R138Q/T323A/T345S/T97I/V358M/Y195H)
[3] = molecular target: A31 (A*3101) (Homo sapiens, UniProt P04439, A270S/D185E/E176V/E277Q/F33T/G231S/G80R/H175R/I121M/I218V/I322F/K168Q/L300P/L318F/M331R/P217A/Q94H/R138Q/T323A/T345S/T97I/V358M)
[4] = molecular target: A*6801 (Homo sapiens, UniProt P04439, A269V/D185E/E176V/E277Q/E87N/F33Y/G231S/I121M/I166T/I218V/L180W/L300P/L318F/N151K/P208A/P217A/Q86R/R169H/T345S)
[5] = molecular target: HLA-A11 (A*1101) (Homo sapiens, UniProt P04439, A114D/D185E/E176A/F33Y/L180Q/S129P/T187R)

Substance: TTITVYAEPPR [Peptide 1556.07]
- pIC50 [1]: < 4.70
- pIC50 [2]: 5.59
- pIC50 [3]: 6.24
- pIC50 [4]: 7.70

Substance: KMFCQLAR [Peptide 1556.53]
- pIC50 [1]: 7.66
- pIC50 [3]: 7.46
- pIC50 [4]: 6.60

Substance: ATNCTNKQR [Peptide 1589.20]
- pIC50 [1]: 5.74
- pIC50 [2]: 4.89
- pIC50 [3]: 7.29

Substance: HLFGYSFYK [Peptide 76.0190]
- pIC50 [1]: 8.27
- pIC50 [2]: 7.48
- pIC50 [3]: 7.57

Substance: LVKHHMYVSK [Peptide 9017.0216]
- pIC50 [1]: 6.24
- pIC50 [3]: 6.46
- pIC50 [4]: 7.77

Substance: 34.0171 (SSBMGGMNK) [Peptide 34.0171]
- A*0301 binding [1]: 0.5440
- A*1101 binding [5]: 1.1000

Substance: RQQFLKTVK [Peptide 1589.33]
- pIC50 [1]: 5.88
- pIC50 [3]: 7.35
- pIC50 [4]: < 4.70

Substance: WLSEPQKCFK [Peptide 88.0236]
- pIC50 [1]: 5.77
- pIC50 [2]: 6.21
- pIC50 [3]: 5.63

Substance: SQACALYWFR [Peptide 88.0192]
- pIC50 [1]: 5.33
- pIC50 [3]: 7.38
- pIC50 [4]: 7.07

Substance: F119.02 (LLGPGRPYR) [Peptide F119.02]
- A*0301 binding [1]: 0.0190
- A*1101 binding [5]: 0.0091

Substance: KTLLQQYCLY [Peptide 88.0130]
- pIC50 [1]: 6.69
- pIC50 [2]: 4.84
- pIC50 [3]: 5.53
- pIC50 [4]: 5.15

Substance: 34.0323 (RVCACPGRDRR) [Peptide 34.0323]
- A*0301 binding [1]: 0.0290
- A*1101 binding [5]: 0.0290

Substance: MVVLLLVRYK [Peptide 1587.04]
- pIC50 [1]: 5.58
- pIC50 [2]: 5.35
- pIC50 [4]: 6.14

Substance: LTKMFCQLAK [Peptide 1556.51]
- pIC50 [1]: 6.03
- pIC50 [2]: 4.90
- pIC50 [3]: 5.62
- pIC50 [4]: 6.76

Substance: LTARNVLVK [Peptide 9012.0213]
- pIC50 [1]: 7.64
- pIC50 [2]: < 4.70
- pIC50 [3]: < 4.70
- pIC50 [4]: 7.28

Substance: SQRLNVCQDK [Peptide 88.0205]
- pIC50 [1]: 5.73
- pIC50 [2]: < 4.70
- pIC50 [3]: 4.87
- pIC50 [4]: < 4.70

Substance: LQGLAQSRYK [Peptide 88.0201]
- pIC50 [1]: 5.96
- pIC50 [2]: < 4.70
- pIC50 [3]: 5.40
- pIC50 [4]: < 4.70

Substance: LTYISTSQR [Peptide 1589.19]
- pIC50 [1]: 7.85
- pIC50 [2]: 7.10
- pIC50 [3]: 7.41
- pIC50 [4]: 9.12

Substance: SQRLNACQNK [Peptide 1589.34]
- pIC50 [1]: 5.57
- pIC50 [2]: < 4.70
- pIC50 [3]: 5.22
- pIC50 [4]: < 4.70

Substance: KQRFHNIRGR [Peptide 78.0083]
- pIC50 [1]: 5.69
- pIC50 [2]: 5.35
- pIC50 [3]: 6.75

Substance: AFADLTVVYR [Peptide 78.0058]
- pIC50 [1]: < 4.70
- pIC50 [2]: 6.60
- pIC50 [3]: 6.85
- pIC50 [4]: 7.41

Substance: GQGVSIEWRK [Peptide 9017.0219]
- pIC50 [1]: 4.82
- pIC50 [2]: < 4.70
- pIC50 [3]: 5.10
- pIC50 [4]: 5.65

Substance: RLCDHIDYWK [Peptide 1589.11]
- pIC50 [1]: 6.34
- pIC50 [2]: < 4.70
- pIC50 [3]: 5.79
- pIC50 [4]: 4.77

Substance: TVTVSAELPK [Peptide 1556.16]
- pIC50 [1]: 5.46
- pIC50 [2]: < 4.70
- pIC50 [3]: < 4.70

Substance: AFTDLTIVYR [Peptide 78.0052]
- pIC50 [1]: < 4.70
- pIC50 [2]: 6.09
- pIC50 [3]: 6.09
- pIC50 [4]: 6.68

Substance: IMCLRFLSK [Peptide 1571.12]
- pIC50 [1]: 7.96
- pIC50 [2]: 5.58
- pIC50 [3]: 5.64
- pIC50 [4]: 4.89

Substance: DSNAQAFLK [Peptide 88.0379]
- pIC50 [1]: < 4.70
- pIC50 [2]: 7.70
- pIC50 [3]: < 4.70
- pIC50 [4]: 7.41

Substance: TIVYIEYRK [Peptide 9017.0118]
- pIC50 [1]: 5.05
- pIC50 [3]: 4.86
- pIC50 [4]: 7.74

Substance: AILGHIVSPR [Peptide 9017.0225]
- pIC50 [1]: 7.85
- pIC50 [2]: 7.13
- pIC50 [3]: 8.34
- pIC50 [4]: 7.04

Substance: VQVYFDGNK [Peptide 88.0399]
- pIC50 [1]: 5.69
- pIC50 [2]: < 4.70
- pIC50 [3]: < 4.70

Substance: VLILALLRYK [Peptide 88.0144]
- pIC50 [1]: 7.28
- pIC50 [5]: 6.58

Substance: RFLSKISEYR [Peptide 1571.13]
- pIC50 [1]: 5.74
- pIC50 [2]: 7.70
- pIC50 [3]: 7.85
- pIC50 [4]: 7.77

Substance: SLKCLRYRLK [Peptide 88.0217]
- pIC50 [1]: 7.13
- pIC50 [2]: 4.73
- pIC50 [3]: 5.57
- pIC50 [4]: 4.90

Substance: LTALIKPKKR [Peptide 9017.0231]
- pIC50 [1]: 5.19
- pIC50 [2]: 5.06
- pIC50 [3]: 5.89
- pIC50 [4]: 7.41

Substance: 34.0232 (RVCACPGRDK) [Peptide 34.0232]
- A*0301 binding [1]: 0.0190
- A*1101 binding [5]: 0.0250

— US9340577B2, “HLA binding motifs and peptides and their uses” (priority 1992, dated 2016)
